Results as given in patent publication US11414425B2 (priority 2018, dated 2022).

These compounds were tested against α5β3γ2 GABAA receptors (Homo sapiens, UniProt P18507+P31644) (assay: [3H]Ro15-1788 binding, membranes of Ltk cells stably expressing α5β3γ2 GABAA receptors). Conditions: not given.
Sequence of α5β3γ2 GABAA receptors (P31644 32-462): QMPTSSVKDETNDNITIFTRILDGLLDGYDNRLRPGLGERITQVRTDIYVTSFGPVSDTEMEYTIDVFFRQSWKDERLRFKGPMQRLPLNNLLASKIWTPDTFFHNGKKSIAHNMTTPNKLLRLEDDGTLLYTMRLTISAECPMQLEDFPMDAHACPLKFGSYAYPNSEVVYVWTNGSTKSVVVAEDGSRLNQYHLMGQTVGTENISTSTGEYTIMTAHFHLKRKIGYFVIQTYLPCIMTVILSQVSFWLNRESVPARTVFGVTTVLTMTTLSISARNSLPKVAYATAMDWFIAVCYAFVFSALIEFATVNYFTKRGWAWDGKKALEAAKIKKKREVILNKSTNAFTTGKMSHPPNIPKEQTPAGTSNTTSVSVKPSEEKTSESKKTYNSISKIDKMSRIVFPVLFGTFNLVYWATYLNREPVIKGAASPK
Sequence of α5β3γ2 GABAA receptors (P28472 26-473 partner): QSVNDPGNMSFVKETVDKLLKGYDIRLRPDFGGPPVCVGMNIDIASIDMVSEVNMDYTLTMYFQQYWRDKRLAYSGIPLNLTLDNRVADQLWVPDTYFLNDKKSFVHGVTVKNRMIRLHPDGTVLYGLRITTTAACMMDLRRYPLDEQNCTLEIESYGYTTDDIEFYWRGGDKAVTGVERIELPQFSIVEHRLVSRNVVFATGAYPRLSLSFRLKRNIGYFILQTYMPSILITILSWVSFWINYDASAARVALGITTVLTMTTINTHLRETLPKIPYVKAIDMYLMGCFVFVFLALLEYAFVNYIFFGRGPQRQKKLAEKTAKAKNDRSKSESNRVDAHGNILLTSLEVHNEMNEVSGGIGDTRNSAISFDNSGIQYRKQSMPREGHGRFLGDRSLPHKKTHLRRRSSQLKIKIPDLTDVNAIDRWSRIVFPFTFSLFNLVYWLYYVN
Sequence of α5β3γ2 GABAA receptors (P18507 40-475): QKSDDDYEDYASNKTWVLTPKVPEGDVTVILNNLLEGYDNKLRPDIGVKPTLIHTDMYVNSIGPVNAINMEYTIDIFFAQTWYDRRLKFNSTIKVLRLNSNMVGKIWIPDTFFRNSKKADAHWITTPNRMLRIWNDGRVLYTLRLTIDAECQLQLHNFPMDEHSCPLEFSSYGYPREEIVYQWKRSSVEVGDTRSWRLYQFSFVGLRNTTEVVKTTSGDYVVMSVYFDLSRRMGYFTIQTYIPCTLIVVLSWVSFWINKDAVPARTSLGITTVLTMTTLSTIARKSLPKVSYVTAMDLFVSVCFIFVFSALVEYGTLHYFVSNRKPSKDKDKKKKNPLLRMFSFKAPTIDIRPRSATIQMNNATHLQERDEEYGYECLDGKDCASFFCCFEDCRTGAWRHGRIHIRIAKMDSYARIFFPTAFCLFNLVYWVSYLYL
`Fc1cccc(COCc2ncn3c2Cc2cnnn2-c2cc(Cl)ccc2-3)c1` [Compound 543] was tested, and the Ki was 100 to 1000 nM. `COc1ccc2c(c1)-n1nncc1Cc1c(C#Cc3ccc(OC(F)F)nc3)ncn1-2` [Compound 693] showed a Ki of less than 100 nM. `COc1ccc(C#Cc2ncn3c2Cc2cnnn2-c2cc(Cl)ccc2-3)nc1` [Compound 532] gave a Ki of less than 100 nM. `CC(C)Oc1ccc(C#Cc2ncn3c2Cc2cnnn2-c2cc(Cl)ccc2-3)cn1` [Compound 697] was tested, and the Ki was less than 100 nM. Compound `Cc1ncc(C#Cc2ncn3c2Cc2cnnn2-c2cc(Cl)ccc2-3)[nH]1` [Compound 659] has a Ki of less than 100 nM. `CCCc1noc(-c2ncn3c2Cc2c(Cc4cccc(F)c4)nnn2-c2cc(Cl)ccc2-3)n1` [Compound 480] was tested, and the Ki was 100 to 1000 nM. `Clc1ccc2c(c1)-n1nncc1Cc1c(C#Cc3cnc4occc4c3)ncn1-2` [Compound 658] was tested, and the Ki was less than 100 nM. Work on `Cc1noc(-c2ncn3c2Cc2c(Cc4ccc(F)cc4)nnn2-c2cc(C(F)(F)F)ccc2-3)n1` [Compound 484] yielded a Ki of less than 100 nM. `Fc1cccc(Cc2nnn3c2Cc2c(-c4nc(-c5ccccc5)no4)ncn2-c2ccc(C(F)(F)F)cc2-3)c1` [Compound 551] showed a Ki of 100 to 1000 nM. For `COc1ccc2c(c1)-n1nncc1Cc1c(-c3cn(-c4ccccc4)nn3)ncn1-2` [Compound 524], the Ki was 100 to 1000 nM. Work on `COc1n[nH]cc1C#Cc1ncn2c1Cc1cnnn1-c1cc(Cl)ccc1-2` [Compound 662] yielded a Ki of less than 100 nM. In the case of `Cc1noc(-c2ncn3c2Cc2c(Cc4ccc(F)cc4)nnn2-c2cc(Cl)ccc2-3)n1` [Compound 479], the Ki is reported as less than 100 nM. `COc1ccc2c(c1)-n1nncc1Cc1c(C3=NCC(C4CCCCC4)O3)ncn1-2` (racemic) [Compound 690] was tested, and the Ki was 100 to 1000 nM. With `Clc1cccc(COCc2ncn3c2Cc2cnnn2-c2cc(Cl)ccc2-3)c1` [Compound 542] the Ki was 100 to 1000 nM.

Same assay, conditions: ranges; inhibition of [3H]Ro15-1788 binding
`COCc1nnc2n1Cc1c(-c3nc(C)no3)ncn1-c1ccc(-c3ccncc3)cc1-2` [Compound 468] was tested, and the Ki was greater than 1000 nM. Work on `COCc1nnc2n1Cc1c(-c3nc(C)no3)ncn1-c1cccc(OC)c1-2` [Compound 472] yielded a Ki of 100 to 1000 nM. Work on `COCc1nnc2n1Cc1c(C)ncn1-c1ccc(OC)cc1-2` [Compound 329] yielded a Ki greater than 1000 nM. With `COCc1nnc2n1Cc1c(C#Cc3ccc(OC)c(C)n3)ncn1-c1ccc(OC)cc1-2` [Compound 586] the Ki was less than 100 nM. `COCc1nnc2n1Cc1c(C#Cc3ccc(C#N)cn3)ncn1-c1ccc(OC)cc1-2` [Compound 590] showed a Ki of 100 to 1000 nM. `COCc1nnc2n1Cc1c(C#Cc3cncnc3)ncn1-c1ccc(OC)cc1-2` [Compound 592] was tested, and the Ki was less than 100 nM. `COCc1nnc2n1Cc1c(C#Cc3cc(C)ccn3)ncn1-c1ccc(Cl)cc1-2` [Compound 560] showed a Ki of less than 100 nM. Compound `COCc1nnc2n1Cc1c(C#Cc3ccc4nccn4c3)ncn1-c1ccc(OC)cc1-2` [Compound 684] has a Ki of 100 to 1000 nM. Compound `Fc1ccccc1OCc1ncn2c1Cc1cnnn1-c1cc(Cl)ccc1-2` [Compound 547] has a Ki of 100 to 1000 nM. Compound `Clc1ccc([C@@H]2CN=C(c3ncn4c3Cc3cnnn3-c3cc(Cl)ccc3-4)O2)cc1` [Compound 719] has a Ki of less than 100 nM. Compound `Clc1ccc([C@H]2CN=C(c3ncn4c3Cc3cnnn3-c3cc(Cl)ccc3-4)O2)cc1` [Compound 720] has a Ki of less than 100 nM. For `FC(F)(F)c1ccc2c(c1)-n1nncc1Cc1c(C3=N[C@H](c4ccccc4)CO3)ncn1-2` [Compound 506], the Ki was less than 100 nM. With `CC(C)c1noc(-c2ncn3c2Cc2c(Cc4ccc(F)cc4)nnn2-c2cc(C(F)(F)F)ccc2-3)n1` [Compound 490] the Ki was less than 100 nM. Compound `COCc1nnc2n1Cc1c(C#Cc3ccc(Cl)cn3)ncn1-c1ccc(OC)cc1-2` [Compound 591] has a Ki of less than 100 nM. `COCc1nnc2n1Cc1c(C#Cc3ccc(C#N)cn3)ncn1-c1ccc(Cl)cc1-2` [Compound 577] showed a Ki of 100 to 1000 nM. `COCc1nnc2n1Cc1c(C#Cc3ccc(Cl)cn3)ncn1-c1ccc(Cl)cc1-2` [Compound 579] showed a Ki of less than 100 nM. With `Cc1nc(-c2ncn3c2Cc2c(Cc4ccc(F)cc4)nnn2-c2cc(Cl)ccc2-3)no1` [Compound 496] the Ki was less than 100 nM. Work on `Clc1ccc2c(c1)-n1nncc1Cc1c(C3=NCC(c4ccncc4)O3)ncn1-2` (stereo not drawn) [Compound 629] yielded a Ki of less than 100 nM. Compound `COCc1nnc2n1Cc1c(C#Cc3cnc(OC)nc3)ncn1-c1ccc(OC)cc1-2` [Compound 584] has a Ki of 100 to 1000 nM. `CCc1cncc(C#Cc2ncn3c2Cn2c(COC)nnc2-c2cc(OC)ccc2-3)c1` [Compound 599] showed a Ki of less than 100 nM. `Fc1cccc(OCc2ncn3c2Cc2cnnn2-c2cc(Cl)ccc2-3)c1` [Compound 546] was tested, and the Ki was less than 100 nM. `Fc1cccc(Cc2nnn3c2Cc2c(-c4nc(-c5ccccc5)no4)ncn2-c2ccc(OC(F)F)cc2-3)c1` [Compound 552] was tested, and the Ki was 100 to 1000 nM. Work on `COCc1nnc2n1Cc1c(C#Cc3cnc(C)cn3)ncn1-c1ccc(OC)cc1-2` [Compound 588] yielded a Ki of less than 100 nM. In the case of `CC1(C)OC(c2ncn3c2Cc2cnnn2-c2cc(OC(F)(F)F)ccc2-3)=N[C@@H]1c1ccccc1` [Compound 510], the Ki is reported as less than 100 nM. `COc1ccc2c(c1)-n1nncc1Cc1c(C#Cc3ccc(OC)nn3)ncn1-2` [Compound 694] gave a Ki of less than 100 nM. For `COCc1nnc2n1Cc1c(C#Cc3ncc(C)cn3)ncn1-c1ccc(OC)cc1-2` [Compound 595], the Ki was 100 to 1000 nM. Compound `COCc1nnc2n1Cc1c(C#Cc3ccc(F)cn3)ncn1-c1ccc(OC)cc1-2` [Compound 585] has a Ki of less than 100 nM. Compound `COc1ccc2c(c1)-n1nncc1Cc1c(C#Cc3ccc(C(F)(F)F)cn3)ncn1-2` [Compound 529] has a Ki of 100 to 1000 nM. With `C#Cc1ncn2c1Cn1c(COCC(F)(F)F)nnc1-c1cc(Cl)ccc1-2` [Compound 342] the Ki was less than 100 nM. In the case of `C#Cc1ccc2c(c1)-c1nnc(COC)n1Cc1c(C3=N[C@H](CC(C)C)CO3)ncn1-2` [Compound 280], the Ki is reported as less than 100 nM. For `Fc1cccc(Cc2nnn3c2Cc2c(-c4nc(-c5ccccc5)no4)ncn2-c2ccc(Cl)cc2-3)c1` [Compound 550], the Ki was 100 to 1000 nM. In the case of `COCc1nnc2n1Cc1c(C#Cc3ccc(OC(F)(F)F)cn3)ncn1-c1ccc(Cl)cc1-2` [Compound 580], the Ki is reported as less than 100 nM. Compound `COCc1nnn2c1Cc1c(C3=NC[C@@H](c4ccc(Cl)cc4)O3)ncn1-c1ccc(Cl)cc1-2` [Compound 634] has a Ki of less than 100 nM. With `FC(F)(F)c1ccc2c(c1)-n1nncc1Cc1c(C#Cc3ccc(Cl)cc3)ncn1-2` [Compound 502] the Ki was less than 100 nM. `COCc1nnc2n1Cc1c(C#Cc3cnc(OC)nc3)ncn1-c1ccc(Cl)cc1-2` [Compound 575] was tested, and the Ki was 100 to 1000 nM. `Cc1noc(-c2ncn3c2Cc2c(Cc4ccc(F)cc4)nnn2-c2cc(OC(F)(F)F)ccc2-3)n1` [Compound 478] was tested, and the Ki was less than 100 nM. `CCCc1noc(-c2ncn3c2Cc2c(Cc4ccc(F)cc4)nnn2-c2cc(OC(F)(F)F)ccc2-3)n1` [Compound 486] showed a Ki of less than 100 nM. In the case of `CCOC(=O)c1ncn2c1Cc1c(Cc3ccccc3Cl)nnn1-c1cc(C)ccc1-2` [Compound 54], the Ki is reported as less than 100 nM. Work on `COCc1nnc2n1Cc1c(C#Cc3ncccn3)ncn1-c1ccc(Cl)cc1-2` [Compound 571] yielded a Ki of less than 100 nM. For `COCc1nnc2n1Cc1c(C#Cc3ccc(SC)nc3)ncn1-c1ccc(OC)cc1-2` [Compound 665], the Ki was 100 to 1000 nM. For `COCc1nnc2n1Cc1c(C#Cc3ccc(O)nc3)ncn1-c1ccc(Cl)cc1-2` [Compound 568], the Ki was less than 100 nM. With `COCc1nnc2n1Cc1c(C#Cc3cccc(C)n3)ncn1-c1ccc(OC)cc1-2` [Compound 598] the Ki was less than 100 nM. Work on `COCc1nnc2n1Cc1c(C#Cc3cnc(C)nc3)ncn1-c1ccc(OC)cc1-2` [Compound 594] yielded a Ki of 100 to 1000 nM. In the case of `Fc1ccc(OCc2ncn3c2Cc2cnnn2-c2cc(Cl)ccc2-3)cc1` [Compound 545], the Ki is reported as less than 100 nM. In the case of `Cc1noc(-c2ncn3c2Cc2c(Cc4cccc(F)c4)nnn2-c2cc(Cl)ccc2-3)n1` [Compound 477], the Ki is reported as less than 100 nM. Compound `COCc1nnc2n1Cc1c(C#Cc3cncnc3)ncn1-c1ccc(Cl)cc1-2` [Compound 569] has a Ki of less than 100 nM. With `COc1ccc(C#Cc2ncn3c2Cc2cnnn2-c2cc(OC(F)(F)F)ccc2-3)cc1` [Compound 497] the Ki was less than 100 nM. `COCc1nnc2n1Cc1c(C#Cc3ccc(OCC4CC4)nc3)ncn1-c1ccc(Cl)cc1-2` [Compound 700] showed a Ki of less than 100 nM. `COCc1nnc2n1Cc1c(C#Cc3ncc(C)cn3)ncn1-c1ccc(Cl)cc1-2` [Compound 600] was tested, and the Ki was 100 to 1000 nM. For `CC1(C)OC(c2ncn3c2Cc2cnnn2-c2cc(OC(F)F)ccc2-3)=N[C@H]1c1ccccc1` [Compound 626], the Ki was 100 to 1000 nM. `Fc1ccc(Cc2nnn3c2Cc2c(-c4ncco4)ncn2-c2ccc(OC(F)(F)F)cc2-3)cc1` [Compound 495] was tested, and the Ki was 100 to 1000 nM. Work on `COCc1nnc2n1Cc1c(C#CC(C)(C)C)ncn1-c1ccc(Cl)cc1-2` [Compound 721] yielded a Ki of less than 100 nM. Compound `COCc1nnc2n1Cc1c(C#Cc3c[nH]nc3OC)ncn1-c1ccc(Cl)cc1-2` [Compound 664] has a Ki of less than 100 nM. With `FC(F)Oc1ccc2c(c1)-n1nncc1Cc1c(C3=NC[C@H](c4ccccc4)O3)ncn1-2` [Compound 625] the Ki was 100 to 1000 nM. Compound `COCc1nnc2n1Cc1c(C#Cc3ccc(F)cn3)ncn1-c1ccc(Cl)cc1-2` [Compound 572] has a Ki of less than 100 nM. In the case of `COCc1nnc2n1Cc1c(C#Cc3cc(C)ccn3)ncn1-c1ccc(OC)cc1-2` [Compound 564], the Ki is reported as 100 to 1000 nM. `CC(C)c1noc(-c2ncn3c2Cc2c(Cc4ccc(F)cc4)nnn2-c2cc(OC(F)(F)F)ccc2-3)n1` [Compound 483] was tested, and the Ki was less than 100 nM. Work on `COCc1nnc2n1Cc1c(C#Cc3ccc(OC)c(F)n3)ncn1-c1ccc(OC)cc1-2` [Compound 583] yielded a Ki of 100 to 1000 nM. `COCc1nnn2c1Cc1c(C#Cc3ccnn3C)ncn1-c1ccc(Cl)cc1-2` [Compound 642] showed a Ki of less than 100 nM. Work on `COCc1nnc2n1Cc1c(C#Cc3nc(C)cs3)ncn1-c1ccc(OC)cc1-2` [Compound 602] yielded a Ki of less than 100 nM. With `Clc1ccc2c(c1)-n1nncc1Cc1c(C#Cc3ccc(-n4cccc4)cc3)ncn1-2` [Compound 702] the Ki was less than 100 nM. In the case of `CC(C)OCc1nnc2n1Cc1c(-c3nc(-c4ccccc4)co3)ncn1-c1ccc(Cl)cc1-2` [Compound 276], the Ki is reported as less than 100 nM. For `COc1ccc2c(c1)-c1nnc(COC(F)F)n1Cc1c(C#Cc3ccc(OC)nc3)ncn1-2` [Compound 620], the Ki was less than 100 nM. In the case of `COCc1nnc2n1Cc1c(C#Cc3ccc(OC(C)C)nc3)ncn1-c1ccc(Cl)cc1-2` [Compound 708], the Ki is reported as less than 100 nM. For `COCc1nnc2n1Cc1c(C#Cc3cccc(OC)n3)ncn1-c1ccc(OC)cc1-2` [Compound 612], the Ki was less than 100 nM. `COCc1nnc2n1Cc1c(C#Cc3ncc(OC)cn3)ncn1-c1ccc(OC)cc1-2` [Compound 593] was tested, and the Ki was less than 100 nM. In the case of `COCc1nnc2n1Cc1c(C#Cc3ccc(C)cn3)ncn1-c1ccc(Cl)cc1-2` [Compound 557], the Ki is reported as less than 100 nM.
